The record followed here is publication PMC7728344, “Pharmacokinetic Characterization of (Poly)phenolic Metabolites in Human Plasma and Urine after Acute and Short-Term Daily Consumption of Mango Pulp” (Molecules, 2020).

The term Tmax denotes the time from dosing to the highest level. Broadly, the Cmax is the highest concentration seen after dosing.

Like-named read-outs stand apart in the source and are kept apart here.

Data set [1] in a line: Concentration of (poly)phenolic metabolites in fasting urine at baseline, 24 h after single MP beverage and 15th day after 14-day MP intake (UHPLC-QQQ-MS). The following applies: human, urine, oral. The text has this:
The acute trial was a randomized, 3 arm, within-subject crossover study design (Figure 5A). The trial initiated with 3 days of food record collection to assess background (pre-study) dietary intake followed by counseling to adhere to a diet devoid of mango or its parts and relatively low in polyphenol-rich beverages/foods, which was maintained throughout the duration of the trial. […] In general, subjects were encouraged to follow their “usual” diet with the exception of foods/beverages that may interfere with the outcomes of the study. Food intake diaries and, phone call and email reminders helped subjects maintain compliance throughout the study period. After an initial 7-day run-in period on the limited polyphenol diet, subjects were assigned to a randomization sequence providing 1 of 3 study test beverages (recipes provided in Appendix A, Table A3) on three separate days in a random order: MP (500 g), MP (500 g) + VC (100 mg) or VC (100 mg) beverages. On each study day subjects arrived fasted and well hydrated. After standard admission procedures were completed (e.g., review of compliance with dietary requirements for 3 days prior to study day, dinner meal intake, usual sleep patterns), a catheter was placed by a registered nurse in subjects’ non-dominant arm and a fasting/baseline blood sample was collected (0 h). Subjects were provided with a standard breakfast meal 2 h after the study beverages. The breakfast meal was comprised of a buttermilk biscuit with butter and jelly, and scrambled egg white with shredded white cheddar cheese. After the 6 h blood collection, subjects ate a low polyphenol lunch consisting of dry roasted peanuts and fresh peeled cucumber with ranch dressing (Appendix A, Table A3).
Spot urine samples were collected in urine collection cups, immediately placed on ice and then aliquoted into individual cryovials. All the samples were stored at −80 °C until analysis.
A 14-day feeding trial was conducted with the MP only to study the effect of repetitive intake of MP on (poly)phenolic metabolite profiles. Upon completion of the acute trial, subjects were instructed to continue on the low polyphenolic diet for 2 weeks while consuming MP beverages (provided by CNRC) daily in the morning (250 g MP + 50 g water) and evening (250 g MP + 50 g water). On day 14, subjects consumed both beverages (500 g of MP in total) in the morning and reported to the CNRC on the 15th day after an overnight fast to provide a fasting blood and urine sample (Figure 5B). Blood and urine samples were collected as described above and stored at −80 °C until analysis.
The supernatant was collected and filtered through 0.2 µm polypropylene syringe filter before HPLC analysis.
The ESI conditions were the same as those used in the UHPLC-Q-TOF analysis. The quantification of the compounds was conducted by multiple-reaction monitoring (MRM) transitions. Spectra were recorded in both positive- and negative-ion mode with capillary voltage of 4500 V and drying gas flow rate of 9 L/min at 200 °C. The sheath gas temperature and flow rate were 300 °C and 11 L/min, respectively. Standards were optimized for collision energies, fragmentor voltages and MRM transitions using Mass Hunter Optimizer. The MRM transition for metabolites were created based on the results from UHPLC-Q-TOF-MS. Standards for plasma analysis were prepared in blank plasma (charcoal-stripped human plasma obtained from Bioreclamation IVT) for matrix match and for urine analysis were prepared in SMP.
The flow rate was maintained at 0.4 mL/min and the injection volume was 5 μL. The mobile phase consisted of acidified water (0.1% formic acid) (A) and acidified acetonitrile (0.1% formic acid) (B). The gradient for the separation of compounds was as follows: 5 to 5% B from 0 to 1 min; 10% B at 3 min; 15% B at 7 min; 15% B at 9 min; 20% B at 10 min; 20% B at 11 min; 25% B at 12 min; 30% B at 13 min; 30% B at 14 min; 95% B at 15 min; and back to 5% B at 16 min.

A further data set is described as follows: clinical. Also on record: AUC0–24h: concentration or dose not given beside the values. Format: in vivo, human. The following applies: for AUC(0-t): read-out: AUC0–24h. Here is the method:
SPE procedure was conducted to extract and concentrate the (poly)phenolic compounds and their metabolites from the plasma samples. Briefly, plasma samples were thawed on ice and 500 µL plasma was diluted with 1.5 mL of 0.1% formic acid in water with addition of internal standards (2-methylhippuric acid (2 ng/mL), phloridizin (1 ng/mL)) before being loaded on preconditioned SPE cartridges. The cartridges were washed with 0.1% formic acid in water (1 mL) after loading with plasma samples. The elution of the compounds was achieved by 0.1% formic acid in methanol (1 mL) and the eluent was dried under nitrogen gas at room temperature. […] Supernatant was collected in amber HPLC vials before analysis.
The absorption and elimination of 11 major mango metabolites over 24 h was determined after MP, MP + VC, and VC intake. The plasma concentration/area at each time point was determined by the mean of 13 subjects. The time vs. concentration curves and the time vs. area curves were created using GraphPad Prism (version 8.2.1). […] Tmax is the time (h) when Cmax was achieved. Wilcoxon signed-rank test was used for Tmax analysis due to non-normal distribution. Area under the plasma concentration time curve (AUC0−24h, nmol·h/L) was calculated by the linear trapezoidal method using Microsoft Excel 2013, version 15 [63]. […]

Setting [2] is: human plasma, 0−24 h, after VC (vitamin C 100 mg) beverage, mean ± standard error, read-out: Cmax.
Setting [3] is: human plasma, after VC beverage, mean ± standard error.

With `O=C(O)c1cc(O)c(O)c(O)c1` [Compound C1, gallic acid], the concentration at 15 day in data set [1] was 100 nM. For the same compound, the concentration at 0 h in data set [1] (500 g) is 200 nM. Besides, the concentration at 24 h in data set [1] (500 g) came to 200 nM. Further, the “time within which absorbed” value in the data set “clinical” (after acute mango intake) is 1 to 2 h. In the data set “clinical” (increase observed, statistical outcome), the “difference in plasma concentrations/areas after MP + VC beverage compared to MP beverage alone” value is listed as “not statistically significant”. Further, the AUC(0-t) in the data set “clinical” (oral, 100 mg, human plasma, after VC beverage, mean ± standard error) came to 0.0249 ± 0.0019 µM·h; in the data set “clinical” (oral, 500 g, human plasma, after MP beverage, linear trapezoidal method, mean ± standard error), 0.0645 ± 0.0078 µM·h; in the data set “clinical” (oral, human plasma, after MP + VC beverage, mean ± standard error), 0.0628 ± 0.0069 µM·h. The Tmax was 2.2 ± 0.4 h in the data set “clinical” (oral, 500 g, human plasma, after MP beverage, mean ± standard error, read-out: Tmax) and 2 ± 0.3 h in “clinical” (oral, human plasma, after MP + VC beverage, mean ± standard error, read-out: Tmax). Besides, the Cmax in “clinical” (oral, human plasma, 0−24 h, after MP (mango pulp 500 g) beverage, mean ± standard error, n = 13, read-out: Cmax) amounted to 20.4 ± 3.1 nM; in the data set “clinical” (oral, human plasma, 0−24 h, after MP + VC (mango pulp 500 g + vitamin C 100 mg) beverage, mean ± standard error, read-out: Cmax) it was 21.1 ± 3.9 nM; in “clinical” (oral, human plasma, 0−24 h, after VC (vitamin C 100 mg) beverage, mean ± standard error, read-out: Cmax) it was 5.3 ± 1.3 nM.
As to methylgallic acid [Compound C3], the Cmax in “clinical” (setting [2]) was determined as 4.8 ± 0.7 nM. Further, the “AUC0–24h” value in the data set “clinical” (setting [3]) came to 0.0259 ± 0.0019 µM·h. For the same compound, in the data set “clinical” (human, in vivo), the “AUC0–24h” value amounted to 0.1611 ± 0.0136 µM·h, the concentration peaked (Cmax) at 54.5 ± 4.9 nM and the Tmax was found to be 2.2 ± 0.3 h. In addition, the “difference in plasma concentrations/areas after MP + VC beverage compared to MP beverage alone” value in the data set “clinical” (in vivo) is “not statistically significant”.
methylgallic acid sulfate [Compound C4]: the peak concentration (Cmax) in the data set “clinical” (setting [2]) amounted to 6.3 ± 1.6 nM. Further, in the data set “clinical” (setting [3]), the “AUC0–24h” value is 0.0247 ± 0.003 µM·h. In “clinical” (human, in vivo), the “AUC0–24h” value was determined as 1.6558 ± 0.274 µM·h, the Cmax stood at 824 ± 131 nM and the Tmax is given as 2.2 ± 0.2 h. The “difference in plasma concentrations/areas after MP + VC beverage compared to MP beverage alone” value in the data set “clinical” (in vivo) is “not statistically significant”.
Regarding “methylpyrogallol glucuronide [Compound C9]”, the Tmax in the data set “clinical” (setting [3]) is reported as 8.0 ± 2.3 h.
“methylpyrogallol sulfate isomer 1 [Compound C6]”: in “clinical” (setting [2]), the Cmax came out at 35.8 ± 9.5 nM. Moreover, the “AUC0–24h” value in the data set “clinical” (setting [3]) was found to be 0.1295 ± 0.036 µM·h.
Take “methylpyrogallol sulfate isomer 2 [Compound C7]”: in the data set “clinical” (setting [2]), the Cmax is 76.6 ± 24.9 nM. The “AUC0–24h” value in the data set “clinical” (setting [3]) turned out to be 0.2166 ± 0.0545 µM·h.
